Measurements published in US7683097B2, “Topoisomerase inhibitors” (Propharmacon Inc., priority 2004, dated 2010).

How the values were obtained:
Assay type in all cases: cell-based
MCF-7 [1] = assay: Cell proliferation assay, MCF-7; conditions: Homo sapiens, MCF7; MCF-7 cell line, Table II; read-out: Activity (IC50, cell proliferation)
Experimental: The MCF-7 cell line, the MDR cell line, and the MCF-7/ADR cell line were used. Alamar Blue™ was used to quantitate cell viability.
The compounds listed in Table II were prepared using the procedures outlined in the above Examples.

MCF-7 [2] = assay: Cell proliferation assay (panel), Breast Cancer MCF-7; conditions: Homo sapiens, MCF7; read-out: GI50 or IC50, Breast Cancer MCF-7
Experimental: (§1) The compounds listed in Table IV were prepared using the procedures outlined in the above Examples.

HCT-15 = assay: Cell proliferation assay, Colon Cancer HCT-15; conditions: Homo sapiens, read-out: GI50 or IC50, Colon Cancer HCT-15
Experimental: (§2) The compounds listed in Table III were prepared using the procedures outlined in the above Examples.

SF-268 = assay: Cell proliferation assay, CNS Cancer SF-268; conditions: Homo sapiens, read-out: GI50 or IC50, CNS Cancer SF-268
Experimental: as §2

MES-SA/Dx5 = assay: Cell proliferation assay, Uterine MES-SA/Dx5; conditions: Homo sapiens, read-out: GI50 or IC50, Uterine MES-SA/Dx5
Experimental: as §1

NCI-ADR = assay: Cell proliferation assay, Breast Cancer NCI-ADR; conditions: Homo sapiens, NCI/ADR-RES; read-out: GI50 or IC50, Breast Cancer NCI-ADR
Experimental: as §1

SK-MEL-2 = assay: Cell proliferation assay, Melanoma SK-MEL-2; conditions: Homo sapiens, read-out: GI50 or IC50, Melanoma SK-MEL-2
Experimental: as §1

H69-AR (MDR) = assay: Cell proliferation assay, SC Lung Cancer H69-AR (MDR); conditions: Homo sapiens, H69AR; read-out: GI50 or IC50, SC Lung Cancer H69-AR (MDR)
Experimental: as §2

PC-3 = assay: Cell proliferation assay, Prostate Cancer PC-3; conditions: Homo sapiens, read-out: GI50 or IC50, Prostate Cancer PC-3
Experimental: as §1

UO-31 = assay: Cell proliferation assay, Renal Cancer UO-31; conditions: Homo sapiens, read-out: GI50 or IC50, Renal Cancer UO-31
Experimental: as §1

HL60-MX1 (MDR) = assay: Cell proliferation assay, Leukemia HL60-MX1 (MDR); conditions: read-out: GI50 or IC50, Leukemia HL60-MX1 (MDR)
Experimental: as §2

NCI-H460 = assay: Cell proliferation assay, NSC Lung Cancer NCI-H460; conditions: Homo sapiens, read-out: GI50 or IC50, NSC Lung Cancer NCI-H460
Experimental: as §2

OVCAR-3 = assay: Cell proliferation assay, Ovarian Cancer OVCAR-3; conditions: Homo sapiens, read-out: GI50 or IC50, Ovarian Cancer OVCAR-3
Experimental: as §1

HL-60 = assay: Cell proliferation assay, Leukemia HL-60; conditions: Homo sapiens, read-out: GI50 or IC50, Leukemia HL-60
Experimental: as §2

SMILES	IC50 (MCF-7 [1])	IC50 (MCF-7 [2])	IC50 (HCT-15)	IC50 (SF-268)	IC50 (SK-MEL-2)	IC50 (PC-3)	IC50 (NCI-H460)	IC50 (OVCAR-3)	further results
COc1ncc(NC(=O)c2ccc(Cl)c(-c3ccc(-c4ccccc4)cc3)c2)cn1	< 1000 nM								
COc1ccc(NC(=O)c2ccc(Cl)c(-c3ccc(-c4cccc(O)c4)cc3)c2)cn1	< 1000 nM								
COc1ccc(NC(=O)c2ccc(Cl)c(-c3cccc(O)c3)c2)cn1	< 1000 nM								
COc1ccc(NC(=O)c2ccc(Cl)c(-c3ccc(-c4cccc(S(C)(=O)=O)c4)cc3)c2)cn1	< 1000 nM								
CCN(CC)CCNC(=O)c1ccc(Cl)c(-c2ccc(-c3ccccc3)cc2)c1	< 1000 nM								
COc1ccc(NC(=O)c2ccc(Cl)c(-c3cccc(C(N)=O)c3)c2)cn1	< 1000 nM								
O=C(NCCN1CCCC1)c1cccc(-c2ccc(-c3ccccc3)cc2)c1	1000 to 10000 nM								
C=C[S+]([O-])c1ccc(NC(=O)c2ccc(Cl)c(-c3ccc(-c4ccccc4)cc3)c2)cn1 (stereo not shown)	1000 to 10000 nM								
O=C(Nc1nnc(C(F)(F)F)s1)c1ccc(Cl)c(-c2ccc(-c3ccccc3)cc2)c1	1000 to 10000 nM								
CS(=O)(=O)c1ccc(-c2cc(C(=O)NC3=NCCS3)ccc2Cl)cc1	1000 to 10000 nM								
O=C(NCCc1c[nH]cn1)C1Cc2ccccc2CN1C(=O)c1ccc(Cl)c(-c2ccc(-c3ccccc3)cc2)c1 (stereo not shown)	> 10000 nM								
O=C(Nc1cccnc1Cl)c1ccc(Cl)c(-c2ccc(-c3ccccc3)cc2)c1	> 10000 nM								
CC(C)(C)OC(=O)NOC(=O)c1ccc(Cl)c(-c2ccc(-c3ccccc3)cc2)c1	> 10000 nM								
CCN(C(=O)c1ccc(Cl)c(-c2ccc(-c3ccccc3)cc2)c1)c1ccc2c(c1)OCO2	> 10000 nM								
COc1ccc(NC(=O)c2ccc(Cl)c(-c3ccc(-c4ccccc4)c(F)c3)c2)cn1 [Compound 6, 6″-Chloro-2′-fluoro-[1,1′;4′,1″]terphenyl-3″-carboxylic acid (6-methoxy-pyridin-3-yl)-amide]		≤ 1000 nM	≤ 1000 nM	1000 to 25000 nM	1000 to 25000 nM	≤ 1000 nM	≤ 1000 nM	≤ 1000 nM	IC50 (MES-SA/Dx5): ≤ 1000 nM; IC50 (NCI-ADR): ≤ 1000 nM; IC50 (H69-AR (MDR)): ≤ 1000 nM; IC50 (UO-31): 1000 to 25000 nM; IC50 (HL60-MX1 (MDR)): ≤ 1000 nM
O=C(Nc1ccc(Cl)nc1)c1ccc(Cl)c(-c2ccc(-c3ccccc3)cc2)c1 [Compound 13, 6-Chloro-[1,1′;4′,1″]terphenyl-3-carboxylic acid (6-chloro-pyridin-3-yl)-amide]		≤ 1000 nM	≤ 1000 nM	1000 to 25000 nM	1000 to 25000 nM	≤ 1000 nM	≤ 1000 nM	≤ 1000 nM	IC50 (UO-31): 1000 to 25000 nM
COc1ccc(NC(=O)c2ccc(Cl)c(-c3ccc(-c4ccncc4)cc3)c2)cn1 [Compound 17, 6-Chloro-4′-pyridin-4-yl-biphenyl-3-carboxylic acid (6-methoxy-pyridin-3-yl)-amide]		≤ 1000 nM	≤ 1000 nM	≤ 1000 nM	≤ 1000 nM	≤ 1000 nM	≤ 1000 nM	≤ 1000 nM	IC50 (MES-SA/Dx5): ≤ 1000 nM; IC50 (NCI-ADR): ≤ 1000 nM; IC50 (UO-31): ≤ 1000 nM; IC50 (HL60-MX1 (MDR)): ≤ 1000 nM
Cc1ccc(NC(=O)c2ccc(Cl)c(-c3ccc(-c4ccccc4)cc3)c2)cc1 [Compound 20, 6-Chloro-[1,1′;4′,1″]terphenyl-3-carboxylic acid p-tolylamide]		≤ 1000 nM	> 25000 nM	1000 to 25000 nM	> 25000 nM	1000 to 25000 nM	1000 to 25000 nM	1000 to 25000 nM	IC50 (UO-31): 1000 to 25000 nM
O=C(NCCN1CCCC1)c1ccc(Cl)c(-c2ccc(-c3ccccc3)cc2)c1 [Compound 26, 6-Chloro-[1,1′;4′,1″]terphenyl-3-carboxylic acid (2-pyrrolidin-1-yl-ethyl)-amide]		1000 to 25000 nM	1000 to 25000 nM	1000 to 25000 nM	1000 to 25000 nM	1000 to 25000 nM	1000 to 25000 nM	1000 to 25000 nM	IC50 (UO-31): 1000 to 25000 nM
O=C(NCC(c1cccnc1)N1CCCC1)c1ccc(Cl)c(-c2ccc(-c3ccccc3)cc2)c1 (stereo not shown) [Compound 32, 6-Chloro-[1,1′;4′,1″]terphenyl-3-carboxylic acid (2-pyridin-3-yl-2-pyrrolidin-1-yl-ethyl)-amide]		≤ 1000 nM		1000 to 25000 nM					IC50 (MES-SA/Dx5): ≤ 1000 nM; IC50 (NCI-ADR): 1000 to 25000 nM; IC50 (H69-AR (MDR)): ≤ 1000 nM; IC50 (HL60-MX1 (MDR)): 1000 to 25000 nM
O=C(NC1=NCCS1)c1ccc(Cl)c(-c2ccc(-c3ccccc3)cc2)c1 [Compound 33, 6″-Chloro-[1,1′;4′,1″]terphenyl-3″-carboxylic acid (4,5-dihydro-thiazol-2-yl)-amide]		1000 to 25000 nM	> 25000 nM	1000 to 25000 nM	1000 to 25000 nM	1000 to 25000 nM	1000 to 25000 nM	1000 to 25000 nM	IC50 (HL-60): 1000 to 25000 nM; IC50 (UO-31): 1000 to 25000 nM
O=C(Nc1ccc(N2CCNCC2)nc1)c1ccc(Cl)c(-c2ccc(-c3ccccc3)cc2)c1 [Compound 36, 6″-Chloro-[1,1′;4′,1″]terphenyl-3″-carboxylic acid (6-piperazin-1-yl-pyridin-3-yl)-amide]		≤ 1000 nM					≤ 1000 nM		IC50 (MES-SA/Dx5): ≤ 1000 nM; IC50 (NCI-ADR): ≤ 1000 nM
COc1ccc(NC(=O)c2ccc(C)c(-c3ccc(-c4ccccn4)cc3)c2)cn1 [Compound 40, 6-Methyl-4′-pyridin-2-yl-biphenyl-3-carboxylic acid (6-methoxy-pyridin-3-yl)-amide]		≤ 1000 nM	≤ 1000 nM	≤ 1000 nM	> 25000 nM	≤ 1000 nM	≤ 1000 nM	≤ 1000 nM	IC50 (MES-SA/Dx5): ≤ 1000 nM; IC50 (H69-AR (MDR)): ≤ 1000 nM; IC50 (HL60-MX1 (MDR)): ≤ 1000 nM
COc1ccc(NC(=O)c2ccc(Cl)c(-c3cccc(-c4ccccc4)c3)c2)cn1 [Compound 68, 6-Chloro-[1,1′;3′,1″]terphenyl-3-carboxylic acid (6-methoxy-pyridin-3-yl)-amide]		≤ 1000 nM					≤ 1000 nM		
O=C(NC(CCc1ccccc1)C(=O)O)c1ccc(Cl)c(-c2cccc(-c3ccccc3)c2)c1 (stereo not shown) [Compound 223, 2-[(6-Chloro-[1,1′;3′,1″]terphenyl-3-carbonyl)-amino]-4-phenyl-butyric acid]		> 25000 nM		> 25000 nM					
O=C(NC(CC1CCCCC1)C(=O)O)c1ccc(Cl)c(-c2cccc(-c3ccccc3)c2)c1 (stereo not shown) [Compound 236, 2-[(6-Chloro-[1,1′;3′,1″]terphenyl-3-carbonyl)-amino]-3-cyclohexyl-propionic acid]		> 25000 nM		> 25000 nM					
COc1ccc(NC(=O)c2ccc(Cl)c(-c3ccc(-c4ccccc4)cc3)c2)cc1 [Compound 303, 6″-Chloro-[1,1′;4′,1″]terphenyl-3″-carboxylic acid (4-methoxy-phenyl)-amide]		≤ 1000 nM	≤ 1000 nM	≤ 1000 nM	> 25000 nM	≤ 1000 nM	≤ 1000 nM	≤ 1000 nM	IC50 (UO-31): 1000 to 25000 nM
O=C(Nc1ccc(F)nc1)c1ccc(Cl)c(-c2ccc(-c3ccccc3)cc2)c1 [Compound 338, 6-Chloro-[1,1′;4′,1″]terphenyl-3-carboxylic acid (6-fluoro-pyridin-3-yl)-amide]		≤ 1000 nM	≤ 1000 nM	≤ 1000 nM	1000 to 25000 nM	≤ 1000 nM	≤ 1000 nM	≤ 1000 nM	IC50 (UO-31): 1000 to 25000 nM
